Reference: publication PMC4113814, “Bioactive Cembrane Derivatives from the Indian Ocean Soft Coral, Sinularia kavarattiensis” (Marine Drugs, 2014)
Converted amounts (≈) assume the structure as drawn.

How the values were obtained:
IL-1β = IL-1β release in supernatants of LPS-treated primary microglial cells (ELISA); format: cell-based, Wistar rats; details: 72 h; for IL-1β release: LPS-treated; for IC50: Rattus norvegicus, inhibition of LPS-induced cytokine release, read-out: IL-1β IC50
Method: (§1) Primary microglial cell cultures were prepared from brains of newborn Wistar rats. Ethics approval for the experiments was granted by the EBIOTEC Review Board (Valter Lombardi, Iván Carrera and Lucía Fernández-Novoa; Project Identification Code: Sinularia Project October 2013; approved 30 October 2013). The neocortex of one-day-old postnatal rats was aseptically dissected out, and the meninges and blood vessels were carefully removed. Following cutting in a medium containing 20% horse serum, the suspension was filtered through a […] and transferred as a single cell suspension to culture dishes, using 5.0 mL of medium per dish. The cultures were incubated at 37 °C in an atmosphere containing 5% CO2. The culture medium consisted of Minimum Essential Medium Eagle, supplemented with L-glutamine, amino acids, vitamins, penicillin, gentamicin, sodium bicarbonate and 20% heat-inactivated horse serum. The medium was changed twice a week. After 1 week, the concentration of horse serum was reduced to 10%. After sixteen days in culture, cells were treated with 1 μg/mL of lipopolysaccharide (LPS). […] Positive controls were treated only with LPS, while negative controls were treated with complete medium. After 72 h of incubation, cells were counted, and 2.5 mL of the supernatants were collected from each well and frozen at −40 °C for cytokine analyses. All experiments were carried out twice.
(§2) The supernatants obtained from cell cultures were analyzed for TNF-α, IL-1β, IL-4, IL-6, IL-8, IL-10 and IL-18 using commercially available ELISA kits following the manufacturers’ instructions. All samples were assayed in duplicate, and equivocal results were repeated. The cytokine concentration was calculated from a standard curve of the corresponding recombinant cytokine.
(§3) The cytotoxicity of the compounds was measured by the colorimetric methyl thiazol tetrazolium (MTT) assay and scored as a percentage of the absorbance reduction of treated cultures versus untreated control cultures. Primary microglial cell cultures were seeded into 96-well microplates at 10^4 cells per well and allowed to grow for 24 h. […] The compounds were serially diluted in complete culture medium with two-fold dilutions (100, 50, 25, 12.5, 6.25, 3.12 and 1.56 μg/mL for in vitro cytotoxicity; 12.5, 6.25, 3.12, 1.56, 0.78 and 0.39 μg/mL for cytokine release). Different concentrations of the compounds were added to each well, and Tamoxifen was used as a positive control, with concentrations ranging from 50 to 1.56 μg/mL. Plates were incubated at 37 °C for 72 h under 5% CO2 atmosphere. Then, the 50 μL of MTT-PBS solution in culture medium were added to each well. The plates were further incubated for 4 h under the same conditions. The medium was then removed and replaced with 200 μL of DMSO to solubilize the MTT formazan product. The solutions were shaken for 20 min, and the absorbance was measured at 570 nm. […] Each value represents the mean of triplicate determinations. The IC50 values were calculated from the compound concentration-response curves.

IL-8 = IL-8 release in supernatants of LPS-treated primary microglial cells (ELISA); format: cell-based, Wistar rats; details: 72 h; for IL-8 release: LPS-treated; for IC50: Rattus norvegicus, inhibition of LPS-induced cytokine release, read-out: IL-8 IC50
Method: as §1, §2, §3

CHIKV replicon = CHIKV replicon assay, Cell-IQ live cell imaging, EGFP fluorescence intensity; details: 50 and 100 μM, 48 h
IL-10 = IL-10 release in supernatants of LPS-treated primary microglial cells (ELISA); format: cell-based, Wistar rats; details: 72 h; for IL-10 release: LPS-treated; for IC50: Rattus norvegicus, inhibition of LPS-induced cytokine release, read-out: IL-10 IC50
Method: as §1, §2, §3

IL-18 = IL-18 release in supernatants of LPS-treated primary microglial cells (ELISA); format: cell-based, Wistar rats; details: 72 h; for IL-18 release: LPS-treated; for IC50: Rattus norvegicus, inhibition of LPS-induced cytokine release, read-out: IL-18 IC50
Method: as §1, §2
as §3, with “The compounds were serially diluted in complete culture medium with two-fold dilutions (100, 50, 25, 12.5, 6.25, 3.12 and 1.56 μg/mL for in vitro cytotoxicity; 12.5, 6.25, 3.12, 1.56, 0.78 and 0.39 μg/mL for cytokine release).” left out

Compound	IL-1β release (IL-1β; C1: 1.0 μg/mL)	IL-1β release (IL-1β; C2: 2.5 μg/mL)	IL-1β release (IL-1β; C3: 5.0 μg/mL)	IC50 (IL-1β)	IL-8 release (IL-8; C1: 1.0 μg/mL)	IL-8 release (IL-8; C2: 2.5 μg/mL)	IL-8 release (IL-8; C3: 5.0 μg/mL)	IC50 (IL-8)	decrease in EGFP marker fluorescence intensity (CHIKV replicon)	IL-10 release (IL-10; C1: 1.0 μg/mL)	IL-10 release (IL-10; C2: 2.5 μg/mL)	IL-10 release (IL-10; C3: 5.0 μg/mL)	IC50 (IL-10)	IL-18 release (IL-18; C1: 1.0 μg/mL)	IL-18 release (IL-18; C2: 2.5 μg/mL)	IL-18 release (IL-18; C3: 5.0 μg/mL)	IC50 (IL-18)
C=C(C)[C@@H]1CC(=O)[C@H]2[C@H](C1)[C@@H]1C(=O)O[C@@H]3C[C@@]4(C)O[C@H]2C(=O)[C@@H]4[C@H]13 [Compound 6, ineleganolide]	1.07 ± 0.07 pg/mL	1.1 ± 0.05 pg/mL	1.09 ± 0.02 pg/mL	> 12.5 µg/mL	247 ± 8 pg/mL	247 ± 8 pg/mL	247 ± 8 pg/mL	> 12.5 µg/mL	only moderate decreases	8.5 ± 3.2 pg/mL	7.8 ± 2.2 pg/mL	7.5 ± 2.1 pg/mL	> 12.5 µg/mL	312 ± 8.2 pg/mL	312 ± 8.2 pg/mL	312 ± 8.2 pg/mL	> 12.5 µg/mL
C=C(C)[C@@H]1C/C=C2\C(=O)O[C@@H](C[C@]3(C)CC(=O)[C@@H](CC(=O)C1)O3)[C@@H]2O [Compound 2, sinuleptolide]	1.08 ± 0.02 pg/mL	0.07 ± 0.04 pg/mL	0.08 ± 0.06 pg/mL	0.5 µg/mL (≈ 1.44 µM)	249 ± 13 pg/mL	123 ± 11 pg/mL	108 ± 9 pg/mL	2.3 µg/mL (≈ 6.6 µM)	strongest decrease	7.9 ± 3.4 pg/mL	17.4 ± 2.3 pg/mL	18.5 ± 1.9 pg/mL	0.5 µg/mL (≈ 1.44 µM)	326 ± 4.9 pg/mL	187 ± 14 pg/mL	155 ± 11 pg/mL	2.9 µg/mL (≈ 8.32 µM)
C=C(C)[C@@H]1C/C=C2\C(=O)O[C@@H](C[C@]3(C)CC(=O)[C@H](CC(=O)C1)O3)[C@@H]2O [Compound 1, 5-epi-sinuleptolide]	1.04 ± 0.08 pg/mL	1.09 ± 0.1 pg/mL	1.08 ± 0.05 pg/mL	> 12.5 µg/mL	256 ± 12 pg/mL	239 ± 5 pg/mL	241 ± 7 pg/mL	> 12.5 µg/mL	strongest decrease	7.6 ± 1.6 pg/mL	8.2 ± 1.8 pg/mL	8.7 ± 2.1 pg/mL	> 12.5 µg/mL	319 ± 8.1 pg/mL	318 ± 7.5 pg/mL	315 ± 8.1 pg/mL	> 12.5 µg/mL
C=C(C)C1CCC23OC2C(CC2(C)CC(=O)C(CC(=O)C1)O2)OC3=O (centres unmarked) [Compound 3, scabrolide D]	1.1 ± 0.05 pg/mL	1.3 ± 0.06 pg/mL	1.2 ± 0.05 pg/mL	> 12.5 µg/mL	247 ± 8 pg/mL	237 ± 4 pg/mL	244 ± 11 pg/mL	> 12.5 µg/mL	inactive	7.5 ± 1.4 pg/mL	6.8 ± 1.5 pg/mL	6.9 ± 1.5 pg/mL	> 12.5 µg/mL	312 ± 8.2 pg/mL	321 ± 7.8 pg/mL	318 ± 7.6 pg/mL	> 12.5 µg/mL
